For one assay, the target named is BRD4(BD1) (Homo sapiens (Human), UniProt O60885). Description: In vitro enzyme inhibition assay (BRD4 AlphaScreen). Format: binding. In outline: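 His-tagged BRD4 tested by AlphaScreen for binding of biotinylated H4K5/8/12/16-tetraacetyl peptide. After 20 min at room temperature, streptavidin donor and nickel chelate acceptor beads added (5 μg/mL final each). IC50 determined.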
(Alpha assays give light when donor and acceptor beads are brought close together.)

In assay [1] the test system is NCI-H460, human non-small cell lung cancer cells. Description: Cell-MTS proliferation assay, NCI-H460. Type of assay: cell-based. The note with it: 168 hr. In outline: (§1)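 Seed: Raji 15,000, HL-60 5,000, NCI-H460 3,000 cells/96-well. +24 hr: 11-pt compound dilution, 100 μM–2.0 nM final. 7 d culture, MTS reagent, read OD490; IC50 vs DMSO, background subtracted.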
The subject of assay [2] is HL-60, human proleukemia cells. Description: Cell-MTS proliferation assay, HL-60. Format: cell-based. To be noted: 168 hr. The gist of the method:
as §1
(Tetrazolium dyes change colour on reduction, which living cells bring about.)

The subject of assay [3] is Raji, human Burkitts lymphoma cells. As to the kind of experiment: Cell-MTS proliferation assay, Raji. Format: cell-based. To be noted: 168 hr. In outline:
as §1

Setting [4] is: in vitro enzyme inhibition assay.
Setting [5] is: Homo sapiens, NCI-H460, Cell-MTS proliferation.
Where [6] appears, read: Homo sapiens, HL-60, Cell-MTS proliferation.
The mark [7] stands for this setting: Homo sapiens, Raji, Cell-MTS proliferation.
The mark [8] stands for this setting: Homo sapiens, NCI-H460, Cell-MTS, class symbols A/B/C.
[9] abbreviates: Homo sapiens, HL-60, Cell-MTS, class symbols A/B/C.
Setting [10] is: Homo sapiens, Raji, Cell-MTS, class symbols A/B/C.
Where [11] appears, read: Homo sapiens, Cell-MTS proliferation, NCI-H460 cells.
The mark [12] stands for this setting: Homo sapiens, Cell-MTS proliferation, HL-60 cells.
Where [13] appears, read: Homo sapiens, Cell-MTS proliferation, Raji cells.

Where two headings read alike, the source gives them in different places.

The term IC50 denotes the concentration that gives 50% inhibition. Low readings indicate higher potency, high ones lower potency.

Consider `Cn1cc(-c2nc(S(C)(=O)=O)ccc2OCC2CC2)c2ccccc2c1=O` [Example 199, 4-[3-(cyclopropylmethoxy)-6-methylsulfonylpyridin-2-yl]-2-methylisoquinolin-1-one], for which the IC50 was under 500 nM against BRD4(BD1) (setting [4]), over 5 µM in assay [1] (setting [5]), under 500 nM in assay [2] (setting [6]) and under 500 nM in assay [3] (setting [7]).

`CCS(=O)(=O)Nc1ccc(Oc2ccc(F)cc2F)c(-c2cc(C(F)(F)F)c(=O)n(C)c2)c1` [Example 138, N-[4-(2,4-difluorophenoxy)-3-[1-methyl-6-oxo-5-(trifluoromethyl)pyridine-3-yl]phenyl]ethanesulfonamide]: the IC50 at BRD4(BD1) (class symbols A/B/C) was under 500 nM; in assay [1] (setting [8]) it was over 5 µM; in assay [2] (setting [9]), under 500 nM; in assay [3] (setting [10]), under 500 nM.

On to `CCS(=O)(=O)c1ccc(NCC2CC2)c(-c2ccc(=O)n(C)c2)c1` [Example 473, 5-[2-(cyclopropylmethylamino)-5-ethylsulfonylphenyl]-1-methylpyridin-2-one], for which the half-inhibitory concentration (IC50) at BRD4(BD1) (setting [4]) is under 500 nM; in assay [1] (setting [11]) it was over 5 µM; in assay [2] (setting [12]), under 500 nM; in assay [3] (setting [13]), 500 to 5000 nM.

Regarding `Cn1cc(-c2cc(NS(C)(=O)=O)ccc2Oc2ccc(F)cc2F)n2cncc2c1=O` [Example 367, N-[4-(2,4-difluorophenoxy)-3-(7-methyl-8-oxoimidazo[1,5-a]pyrazin-5-yl)phenyl]methanesulfonamide], the IC50 was under 500 nM against BRD4(BD1) (setting [4]), over 5 µM in assay [1] (setting [5]), under 500 nM in assay [2] (setting [6]) and under 500 nM in assay [3] (setting [7]).

Turning to `COc1ccc(-c2cn(C)c(=O)c3cnccc23)cc1S(=O)(=O)NCc1ccccc1` [Example 54, N-benzyl-2-methoxy-5-(2-methyl-1-oxo-2,7-naphthyridin-4-yl) benzenesulfonamide], the half-maximal inhibitory concentration (IC50) was over 5000 nM on BRD4(BD1) (class symbols A/B/C); over 5 µM in assay [1] (Cell-MTS, class symbols A/B/C); 500 to 5000 nM in assay [2] (Cell-MTS, class symbols A/B/C); over 5000 nM in assay [3] (Cell-MTS, class symbols A/B/C).

For the molecule `Cn1cc(-c2cc(OCc3ccccc3OC(F)F)cc(S(C)(=O)=O)c2)c2ccoc2c1=O` [Example 348, 4-[3-[[2-(difluoromethoxy)phenyl]methoxy]-5-methylsulfonylphenyl]-6-methylfuro[2,3-c]pyridin-7-one], the 50% inhibitory concentration (IC50) was under 500 nM against BRD4(BD1) (setting [4]), 0.5 to 5 µM in assay [1] (setting [5]), under 500 nM in assay [2] (setting [6]) and under 500 nM in assay [3] (setting [7]).

For the molecule `CC#CCOc1ccc(S(=O)(=O)CC)cc1-c1cc(OC)c(=O)n(C)c1` [Example 389, 5-(2-but-2-ynoxy-5-ethylsulfonylphenyl)-3-methoxy-1-methylpyridin-2-one], the IC50 against BRD4(BD1) (setting [4]) is under 500 nM; in assay [1] (setting [11]) it was over 5 µM; in assay [2] (setting [12]), under 500 nM; in assay [3] (setting [13]), 500 to 5000 nM.

Consider `CC(C)n1cc(Oc2cc(-c3cc(S(C)(=O)=O)ccc3OCC3CC3)cn(C)c2=O)cn1` [Example 294, 5-[2-(cyclopropylmethoxy)-5-methylsulfonylphenyl]-1-methyl-3-(1-propan-2-ylpyrazol-4-yl)oxypyridin-2-one], for which the IC50 is under 500 nM against BRD4(BD1) (setting [4]), over 5 µM in assay [1] (setting [5]), 500 to 5000 nM in assay [2] (setting [6]) and over 5000 nM in assay [3] (setting [7]).

Consider `Cn1cc(-c2cc(CS(C)(=O)=O)ccc2Oc2ccc(F)cc2F)n2cncc2c1=O` [Example 372, 5-[2-(2,4-difluorophenoxy)-5-(methylsulfonylmethyl)phenyl]-7-methylimidazo[1,5-a]pyrazin-8-one], for which the 50% inhibitory concentration (IC50) was under 500 nM against BRD4(BD1) (setting [4]), over 5 µM in assay [1] (setting [5]), under 500 nM in assay [2] (setting [6]) and under 500 nM in assay [3] (setting [7]).

As to `CCS(=O)(=O)Nc1ccc(Oc2ccc(F)cc2F)c(-c2cc(C)c(=O)n(CC3CC3)c2)c1` [Example 247, N-[3-[1-(cyclopropylmethyl)-5-methyl-6-oxopyridin-3-yl]-4-(2,4-difluoro-phenoxy)phenyl]ethanesulfonamide], the 50% inhibitory concentration (IC50) at BRD4(BD1) (setting [4]) is under 500 nM; in assay [1] (setting [5]) it was over 5 µM; in assay [2] (setting [6]), under 500 nM; in assay [3] (setting [7]), under 500 nM.

Consider `CCS(=O)(=O)Nc1ccc(Oc2ccc(F)cc2F)c(-c2cn(C)c(=O)c3oc(C)cc23)c1` [Example 269, N-[4-(2,4-difluorophenoxy)-3-(2,6-dimethyl-7-oxofuro[2,3-c]pyridin-4-yl)phenyl]ethanesulfonamide], for which the IC50 was under 500 nM at BRD4(BD1) (setting [4]), over 5 µM in assay [1] (setting [5]), under 500 nM in assay [2] (setting [6]) and under 500 nM in assay [3] (setting [7]).

For the molecule `COc1ccc(-c2cn(C)c(=O)c3cncn23)cc1NS(C)(=O)=O` [Example 132, N-[2-methoxy-5-(7-methyl-8-oxoimidazo[1,5-a]pyrazin-5-yl)phenyl]methanesulfonamide], the IC50 was 500 to 5000 nM at BRD4(BD1) (class symbols A/B/C), 0.5 to 5 µM in assay [1] (setting [8]), 500 to 5000 nM in assay [2] (setting [9]) and over 5000 nM in assay [3] (setting [10]).

As for `Cn1cc(-c2cc(S(C)(=O)=O)ccc2NCC2CC2)c2ccccc2c1=O` [Example 194, 4-[2-(cyclopropylmethylamino)-5-methylsulfonylphenyl]-2-methylisoquinolin-1-one], the half-inhibitory concentration (IC50) is under 500 nM at BRD4(BD1), over 5 µM in assay [1] (setting [5]), under 500 nM in assay [2] (setting [6]) and under 500 nM in assay [3] (setting [7]).

With `Cc1cc(-c2nc(NS(C)(=O)=O)ncc2OCC2CC2)cn(C)c1=O` [Example 153, N-[5-(cyclopropylmethoxy)-4-(1,5-dimethyl-6-oxopyridin-3-yl)pyrimidin-2-yl]methanesulfonamide], the IC50 at BRD4(BD1) (setting [4]) was under 500 nM; in assay [1] (setting [5]) it was over 5 µM; in assay [2] (setting [6]), 500 to 5000 nM; in assay [3] (setting [7]) it was 500 to 5000 nM.

`Cc1cc(-c2cc(S(C)(=O)=O)ccc2NCC2CC2)cn(C)c1=O` [Example 462, 5-[2-(cyclopropylmethylamino)-5-methylsulfonylphenyl]-1,3-dimethylpyridin-2-one]: the IC50 at BRD4(BD1) (setting [4]) was under 500 nM; in assay [1] (setting [11]) it was over 5 µM; in assay [2] (setting [12]), under 500 nM; in assay [3] (setting [13]), under 500 nM.

For `CCS(=O)(=O)c1cccc(-c2cn(C)c(=O)c3cc(F)ccc23)c1` [Example 63, 4-(3-ethylsulfonylphenyl)-7-fluoro-2-methylisoquinolin-1-one], the 50% inhibitory concentration (IC50) was 500 to 5000 nM on BRD4(BD1) (class symbols A/B/C), over 5 µM in assay [1] (setting [8]), 500 to 5000 nM in assay [2] (setting [9]) and 500 to 5000 nM in assay [3] (setting [10]).

On to `COc1ccc(-c2cc(N)c(=O)n(C)c2)cc1NS(C)(=O)=O` [Example 109, N-[5-(5-amino-1-methyl-6-oxopyridin-3-yl)-2-methoxyphenyl]methanesulfonamide], for which the 50% inhibitory concentration (IC50) against BRD4(BD1) (class symbols A/B/C) was 500 to 5000 nM; in assay [1] (setting [8]), over 5 µM; in assay [2] (setting [9]) it was over 5000 nM; in assay [3] (setting [10]), over 5000 nM.

As for `CC#CCOc1ccc(S(=O)(=O)CC)cc1-c1cn(C)c(=O)c2ccccc12` [Example 185, 4-(2-but-2-ynoxy-5-ethylsulfonylphenyl)-2-methylisoquinolin-1-one], the half-maximal inhibitory concentration (IC50) at BRD4(BD1) (setting [4]) was under 500 nM; in assay [1] (setting [5]), over 5 µM; in assay [2] (setting [6]), under 500 nM; in assay [3] (setting [7]), under 500 nM.

Take `CCS(=O)(=O)Nc1cnc(OCC2CC2)c(-c2cn(C)c(=O)c3oc(F)cc23)c1` [Example 261]: the IC50 was under 500 nM at BRD4(BD1) (setting [4]), over 5 µM in assay [1] (setting [5]), under 500 nM in assay [2] (setting [6]) and under 500 nM in assay [3] (setting [7]).

Consider `CCCCc1cnc(NS(=O)(=O)CC)nc1-c1cn(C)c(=O)c2ccccc12` [Example 309, N-[5-butyl-4-(2-methyl-1-oxoisoquinolin-4-yl)pyrimidin-2-yl] ethanesulfonamide], for which the IC50 was under 500 nM against BRD4(BD1) (setting [4]), over 5 µM in assay [1] (setting [5]), under 500 nM in assay [2] (setting [6]) and under 500 nM in assay [3] (setting [7]).

Turning to “4-[5-(cyclopropylmethoxy)-2-methylsulfonylpyridin-4-yl]-7-fluoro-2-methylisoquinolin-1-one [Example 203]”, the half-maximal inhibitory concentration (IC50) is under 500 nM against BRD4(BD1) (setting [4]), over 5 µM in assay [1] (Cell-MTS proliferation), under 500 nM in assay [2] (Cell-MTS proliferation) and under 500 nM in assay [3] (Cell-MTS proliferation).

Take `Cc1cc(-c2cc(OCC3CC3)cc(S(C)(=O)=O)c2)cn(C)c1=O` [Example 325, 5-[3-(cyclopropylmethoxy)-5-methylsulfonylphenyl]-1,3-dimethylpyridin-2-one]: the IC50 on BRD4(BD1) (setting [4]) was under 500 nM; in assay [1] (setting [5]), over 5 µM; in assay [2] (setting [6]), 500 to 5000 nM; in assay [3] (setting [7]) it was 500 to 5000 nM.

Consider `Cn1cc(-c2cc(S(C)(=O)=O)ccc2NCC2CC2)c2ccc(F)cc2c1=O` [Example 196, 4-[2-(cyclopropylmethylamino)-5-methylsulfonylphenyl]-7-fluoro-2-methylisoquinolin-1-one], for which the half-maximal inhibitory concentration (IC50) against BRD4(BD1) (setting [4]) is under 500 nM; in assay [1] (setting [5]) it was over 5 µM; in assay [2] (setting [6]) it was under 500 nM; in assay [3] (setting [7]), under 500 nM.

In the case of `COc1ccc(-c2cc(N(C)C)c(=O)n(C)c2)cc1NS(C)(=O)=O` [Example 113, N-[5-[5-(dimethylamino)-1-methyl-6-oxopyridin-3-yl]-2-methoxyphenyl]methanesulfonamide], the IC50 was under 500 nM at BRD4(BD1) (class symbols A/B/C), 0.5 to 5 µM in assay [1] (setting [8]), under 500 nM in assay [2] (setting [9]) and 500 to 5000 nM in assay [3] (setting [10]).

These data come from patent US10023592B2, “Bromodomain inhibitors” (Celgene Quanticel Research, Inc., priority 2013, dated 2018).
